Measured values published in US20260365696A1, “INHIBITORS OF PTP1B / NCK1 INTERACTION AND METHODS OF MAKING AND USING SAME” (Radella Pharmaceuticals LLC, priority 2023, published 2026).
Entries after “also recorded” stand apart in the source; their conditions may differ.

Legend:
LDLR−/− mice = test: LDLR−/− mouse model of atherosclerosis; assay type: in vivo; conditions: 30 mg/kg IP daily
From the text: Animals: All animals were housed and tested following European (Directive on the Protection of Animals used for Scientific Purposes, 2010/63/EU) and UK Home Office regulations. Experiments were approved by the University Ethics Board and carried out in accordance with the Animal (Scientific Procedures) Act 1986 and following ARRIVE guidelines. LDLR−/− male mice (~6-7 weeks old) were purchased from Jackson, US. All mice received a high fat/high cholesterol diet (42% fat plus 0.2% cholesterol, #TD.88137, Envigo, US), to induce atherosclerosis phenotype associated with obesity and type 2 diabetes. All mice had ad libitum access to food and water and were kept in a 12 h light/dark cycle.
Treatments: After 8 weeks of high fat/high cholesterol diet feeding, mice were randomized in to control (n=10) or MD20 30 mg/kg (n=9) groups. MD20 compound (30 mg/kg) was administered once daily via intraperitoneal (IP) injection for 7 weeks, whereas control mice received a daily IP injection of vehicle (PBS). MD20 was kept at −20 °C and dissolved in sterile phosphate buffered saline (PBS) freshly every day before the injection. Two mice died during the study and final numbers per group were: control (n=8) and MD20 30 mg/kg (n=9).
Bodyweights and body mass composition: Body weights were recorded during the study, and fat and lean mass composition was analyzed using an EchoMRI scanner (EchoMedical Systems, Houston, TX, U.S.A.).
Metabolic measurements: All animals were 5 h-fasted before metabolic tests. Tail blood glucose was measured using AlphaTRAK 2 glucose strips and glucometer (Abbot, UK).
Glucose and insulin tolerance tests (GTT, ITT) were performed by IP injection of 2 mg/g of glucose (GTT) or 0.6 mU/g insulin (ITT), and glucose levels were measured at 15, 30, 60 and 90 min post-injection.
Serum and liver assays: Trunk-derived blood was collected from 5 h-fasted mice into serum separator microtubes and kept at −80 °C. Serum was used for insulin (#EZRMI-13K, Merck), leptin (#90030, Crystal Chem), free fatty acids (FFA; #mak044, Sigma-Aldrich), cholesterol (#MAK043, Sigma Aldrich), and alanine and aspartate aminotransferase (ALT and AST; ab105134 and ab105135, Abcam) analyses. Serum and liver triglycerides were determined using triglyceride reagents (#T2449, #F6428, #G7793, Sigma Aldrich).
Aortic plaques analyses: Hearts with aortas attached were immersed in formalin and stored at 4 °C for 24 h following dissection, and transferred in to PBS thereafter. Aortas were sub-dissected under microscope and prepared for staining with Oil Red O. Images were captured using a light microscope. Plaque formation was quantified using ImageJ software, and results were expressed as % plaque area.
Statistical analyses: Data were reported as means±SEM and analyzed using one- or two-way ANOVA with Bonferroni post hoc tests, as appropriate. GraphPad Prism (V8, GraphPad Software, Inc., San Diego, California, USA) was used for statistical analyses. P-values <0.05 were considered significant.

ATF4 = ATF4 gene expression in liver of LDLR−/− mice (qPCR); assay type: in vivo, mouse; conditions: 30 mg/kg IP daily, vs control
Experimental: FIGS. 30A-30E are graphs showing expression of various genes in tissues of HFD-fed LDLR−/− mice following 6 weeks of daily IP administration of MD20 (30 mg/kg) or a vehicle control. Mice were fasted for 5 hours at the conclusion of the experiment, liver and white adipose tissue (“WAT”) samples were collected, and gene expression was measured by qRT-PCR. Expression of glucose transporter 4 (GLUT4; FIG. 30A) and stearoyl-CoA-desaturase 1 (SCD1; FIG. 30B) was measured in adipose tissue, and expression of Glucose-6-phosphatase (G6P; FIG. 30C), Activating Transcription Factor 4 (ATF4; FIG. 30D), and 3-hydroxy-3-methylglutaryl (HMGCS; FIG. 30E) was measured in liver tissue. Data represent mean±SEM; statistical differences were determined using two tailed student's t-test.
Gene expression analyses: Livers and adipose tissue were collected from 5 h-fasted animals and snap-frozen in liquid nitrogen. RNA was isolated from frozen liver tissue using TRIzole (Sigma, UK) and cDNA was synthesized from 1 μg RNA using bioscript cDNA synthesis kit (Bioline, UK), oligo (dT) 18 (SEQ ID NO: 170), and random hexamer primers.
Genes of interest were amplified by quantitative PCR (qPCR) using gene-specific primers and GoTaq qPCR master mix (Promega, Madison, WI, USA).

[1] = In vivo biodistribution / pharmacokinetics in C57/BL6 mice; set-up: species or system mouse; conditions: 30 mg/kg IP
Experimental: FIG. 6 is a graph showing MD20 concentrations in the indicated tissues in a mouse following intraperitoneal (IP) administration of the peptide at a dose of 30 mg/kg. Tissue samples were collected at 0, 0.25, 0.5, 1, 2, 4, 8, and 24 hours post-injection.
Biodistribution: In vivo pharmacokinetic assessments of biodistribution of MD20 were performed in C57/BL6 male mice. All animals were maintained under a 12 h light/dark cycle with free access to food and water, where temperature and humidity was controlled according to UK Home Office regulations. MD20 compound was dissolved in PBS and administered to animals via intraperitoneal (IP) injection at a dose of 30 mg/kg. Mice were sacrificed at eight different time points (0.25, 0.5, 1, 3, 4, 6, 8 and 24 h house post-dosing; n=3 animals per time point, 24 animals in total). Terminal blood (in EDTA-containing tubes for plasma), perfused liver, muscle, adipose, kidney and brain samples were collected and kept on dry ice. Blood samples were centrifuged (4 °C, 21,100 g for 5 min) and the resulting plasma was transferred in to corresponding tubes. All samples were analyzed using LC-MS and appropriate methods.

What does the source list for Ac-PRPPKR-NH2 [MD20, Ac-PRPPKR-NH2]?
% change in fat mass (LDLR−/− mice; vs control): a trend to ward a decreased % change in fat mass; aortic plaque area (LDLR−/− mice; vs control): No statistically significant differences; % change in body weights (LDLR−/− mice; vs vehicle): significant interaction; body weights during the weeks of treatment (LDLR−/− mice; vs vehicle): significant interaction; fat mass content (LDLR−/− mice; vs vehicle): No statistically significant differences; lean mass (LDLR−/− mice; vs vehicle): No significant changes in lean mass; raw body weights (LDLR−/− mice; vs vehicle): No statistically significant differences; glucose tolerance test (GTT) (LDLR−/− mice; 2 mg/g glucose): No statistically significant differences; insulin tolerance test (ITT) (LDLR−/− mice; 0.6 mU/g insulin): not statistically significant, slight improvements could be seen; hepatic triglycerides (LDLR−/− mice; 5 h-fasted): No statistically significant differences; serum ALT (LDLR−/− mice; 5 h-fasted): No statistically significant differences; serum AST (LDLR−/− mice; 5 h-fasted): No statistically significant differences; serum cholesterol (LDLR−/− mice; 5 h-fasted): No statistically significant differences; serum free fatty acids (LDLR−/− mice; 5 h-fasted): No statistically significant differences; serum insulin (LDLR−/− mice; 5 h-fasted): No statistically significant differences; serum leptin (LDLR−/− mice; 5 h-fasted): No statistically significant differences; serum triglycerides (LDLR−/− mice; 5 h-fasted): No statistically significant differences; ATF4 expression in liver (ATF4): decreased; detection in most tissues and plasma, time post-administration [1]: up to 5 h; stability and bioavailability in vivo [1]: good stability and bioavailability in vivo; detection in liver ([1]; any time point): No MD20 was detected in the liver; also recorded: not detected in liver tissue at any time point
